According to patent publication US20090317496A1, “Method for Preventing and Treating the Disease Caused by Vascular Damage and the Use Thereof” (priority 2005, published 2009):

Key:
[1] = tested on: retinal vascular endothelial cell; assay: MTT assay, apoptosis of retinal vascular endothelial cell caused by the lack of serum; type: cell-based, human; details: FBS free medium, 10 μg/ml, 24 hours; FIG. 3c
Experimental: (§1) The HUVEC (human umbilical venous endothelial cell) and retinal vascular endothelial cell (cell-systems, USA) were incubated at M199 medium containing 20% (w/v) FBS (HyClone, Canada), 100 units/m ? of penicillin (Invitrogen, USA), 100 μg/m ? of streptomycin (Invitrogen, USA), 3 ng/m ? of bFGF (basic fibroblast growth factor, Upstate Biotechnology, USA) and 5 units/m ? of heparin (Life Technologies, USA) under 5% CO2 gas condition at 37° C. (See FIG. 2a and FIG. 2b).
(§2) To investigate the suppression effect of SG was determined by (3-[4,5-dimethylthiazol-2-yl]-2,5-diphenyl tetrazolium bromide (MTT) assay method disclosed in the literature (Wang Z et al., Biol., Pharm. Bull., 24, pp 159-162, 2001).
(§3) HUVEC and retinal vascular endothelial cell were spread on 24-well plates (3×10^4 cells/well) and were incubated for 24 hours. The mediums were substituted with new medium containing 20% (w/v) FBS and FBS free medium respectively. The FBS free medium was treated with various concentrations of SG, i.e., 0, 1, 5, 10, 20 μg/m ? . The medium was incubated for 24 hours. After the incubation, MTT assay was performed.
(§4) To investigate the suppressive effect of SG, Rb1, Rg1, Re, Rg3, Rg5 and Rk1 on the cell apoptosis if retinal vascular endothelial cell caused by the lack of serum, the effect were determined by (3-[4,5-dimethylthiazol-2-yl]-2,5-diphenyl tetrazolium bromide (MTT) assay method disclosed in the literature (Wang Z et al., Biol., Pharm. Bull., 24, pp 159-162, 2001).
(§5) HUVEC and retinal vascular endothelial cell were spread on 24-well plates (3×10^4 cells/well) and were incubated for 24 hours respectively. The mediums were substituted with new medium containing 20% (w/v) FBS and FBS free medium respectively. The FBS free medium was treated with 10 μg/m ? of SG, Rb1, Rg1, Re, Rg3, Rg5 and Rk1 and the medium was incubated for 24 hours. After the incubation, MTT assay was performed.

[2] = tested on: HUVEC (human umbilical venous endothelial cell); assay: MTT assay, apoptosis of HUVEC caused by the lack of serum; type: cell-based; details: FBS free medium, 10 μg/ml, 24 hours; FIG. 3c
Experimental: as §1, §2, §3, §4, §5

[3] = tested on: vascular endothelial cells (HUVEC); assay: DAPI staining, DNA fragmentation of vascular endothelial cell caused by the lack of serum; type: cell-based, human; details: FBS free medium, Rk1 0, 0.5, 1, 5, 10 μg/ml, 24 hours; FIG. 5
Experimental: FIG. 5 is the result of staining with DAPI showing suppressive effect of Rk1 on the apoptosis of HUVEC in medium,
Vascular endothelial cell were spread on 35 mm dish (1.5×10^5 cells/well) and were incubated for 24 hours. The mediums were substituted with new medium containing 20% (w/v) FBS and FBS free medium respectively. The FBS free medium was treated with various concentrations of Rk1, i.e., 0, 0.5, 1, 5, 10 μg/m ? and incubated for 24 hours. After the incubation, the medium was washed with PBS solution 2 times, fixed with 2% of paraformaldehyde and washed with PBS solution 2 times again. DAPI (4′,6-Diamidino-2-phenylindole-2-HCl. Calbiochem, USA) solution was added thereto, incubated for 30 minutes in darkroom and washed with PBS two times. The DNA fragmentation was measured by fluorescent microscope (Fluorescent microscope, Axioplan2, ZEISS, Germany) after mounting with cover slip.

[4] = tested on: tight junction proteins ZO-1, ZO-2 and occludin; assay: Western blot of tight junction proteins in mouse retina; type: in vivo, C57/BL6 mice; details: FIG. 6b
[5] = tested on: vascular endothelial cells (HUVEC); assay: MTT assay, Rk1 on apoptosis of vascular endothelial cell caused by the lack of serum; type: cell-based, human; details: FBS free medium, Rk1 0, 0.5, 1, 5, 10 μg/ml, 24 hours; FIG. 4
Experimental: FIG. 4 is the result of MTT assay showing suppressive effect of Rk1 on the apoptosis of HUVEC in medium,
as §3, with “Vascular” for “HUVEC and retinal vascular”, “Rk1,” for “SG,”, “0, 0.5,” for “0,”, “10” for “10, 20”, “and” for “. The medium was”

[6] = tested on: retinal vessel of C57/BL6 mice; assay: Angiography with FITC-dextran, permeability of retinal vessel; type: in vivo; details: FIG. 11
Experimental: Both of 100 ng of VEGF and 30 μg of Rk1 were injected into the retina of C57/BL6 mice (Orient, Korea). After 24 hours, the mice were anesthetized and FITC-dextran was injected into the heart to allow fluorescent material to flow in blood. […] In the only VEGF-injected mice, it has been confirmed that the fluorescent material was exuded from neighboring tissues around blood vessel caused by the increased permeability of retinal vessel however the exudation in VEGF was recovered by the treatment of Rk1.
Likewise, it has been also confirmed that the fluorescent material was exuded from neighboring tissues around blood vessel caused by the increased permeability of retinal vessel in diabetes induced mice however the exudation was recovered by the treatment of Rk1.

[7] = tested on: tight junction proteins ZO-1, ZO-2 and occludin; assay: Western blot of tight junction proteins in human retinal vascular endothelial cells; type: cell-based; details: human retinal endothelial cell, FIG. 6a
Experimental: Human retinal vascular endothelial cell were spread on 60 mm dish (3×10^5 cells/well) and were incubated for 24 hours.
The cells were transferred to human endothelial SFM-basal growth medium (Invitrogen, USA), incubated for 24 hours and transferred to new human endothelial SFM-basal growth medium again. The medium was treated with 20 ng/m ? of VEGF (vascular endothelial growth factor) and Rk1, and incubated for 6 hours. After the incubation, the cells were collected to induce lysis and western blot analysis was performed.

[8] = tested on: tight junction protein ZO-1, ZO-2 and occludin; assay: Immunocytochemistry of tight junction proteins in human retinal vascular endothelial cells; type: cell-based; details: human retinal endothelial cell
Experimental: Human retinal vascular endothelial cell were spread on 35 mm dish (2×10^5 cells/well) and were incubated for 24 hours. The cells were transferred to human endothelial SFM-basal growth medium (Invitrogen, USA), incubated for 24 hours and transferred to new human endothelial SFM-basal growth medium again. The medium was treated with 20 ng/m ? of VEGF (vascular endothelial growth factor) and Rk1, and incubated for 6 hours. After the incubation, the medium was washed with PBS solution and immunocytochemistry analysis was performed to determine the change of tight junction protein.

[9] = tested on: tight junction protein ZO-1, ZO-2 and occludin; assay: Immunocytochemistry of tight junction proteins in mouse retina; type: in vivo, C57/BL6 mice

CC(C)=CCC[C@](C)(O[C@@H]1O[C@H](CO[C@@H]2O[C@H](CO)[C@@H](O)[C@H](O)[C@H]2O)[C@@H](O)[C@H](O)[C@H]1O)[C@H]1CC[C@]2(C)[C@@H]1[C@H](O)C[C@@H]1[C@@]3(C)CC[C@H](O[C@@H]4O[C@H](CO)[C@@H](O)[C@H](O)[C@H]4O[C@@H]4O[C@H](CO)[C@@H](O)[C@H](O)[C@H]4O)C(C)(C)[C@@H]3CC[C@]12C [Rb1, ginsenoside Rb1, reference compound]
apoptosis and cell viability of retinal vascular endothelial cells (MTT assay) [1]: did not

CC(C)=CCC[C@](C)(O[C@@H]1O[C@H](CO)[C@@H](O)[C@H](O)[C@H]1O)[C@H]1CC[C@]2(C)[C@@H]1[C@H](O)C[C@@H]1[C@@]3(C)CC[C@H](O)C(C)(C)[C@@H]3[C@@H](O[C@@H]3O[C@H](CO)[C@@H](O)[C@H](O)[C@H]3O[C@@H]3O[C@@H](C)[C@H](O)[C@@H](O)[C@H]3O)C[C@]12C [Re, ginsenoside Re, reference compound]
apoptosis and cell viability of retinal vascular endothelial cells (MTT assay) [1]: did not

CC(C)=CCC[C@](C)(O[C@@H]1O[C@H](CO)[C@@H](O)[C@H](O)[C@H]1O)[C@H]1CC[C@]2(C)[C@@H]1[C@H](O)C[C@@H]1[C@@]3(C)CC[C@H](O)C(C)(C)[C@@H]3[C@@H](O[C@@H]3O[C@H](CO)[C@@H](O)[C@H](O)[C@H]3O)C[C@]12C [Rg1, ginsenoside Rg1, reference compound]
apoptosis and cell viability of retinal vascular endothelial cells (MTT assay) [1]: did not

CC(C)=CCC[C@](C)(O)[C@H]1CC[C@]2(C)[C@@H]1[C@H](O)C[C@@H]1[C@@]3(C)CC[C@H](O[C@@H]4O[C@H](CO)[C@@H](O)[C@H](O)[C@H]4O[C@@H]4O[C@H](CO)[C@@H](O)[C@H](O)[C@H]4O)C(C)(C)[C@@H]3CC[C@]12C [Rg3, ginsenoside Rg3]
apoptosis and cell viability of retinal vascular endothelial cells (MTT assay) [1]: inhibited the apoptosis
apoptosis and cell viability of HUVEC (MTT assay) [2]: inhibited the apoptosis

CC(C)=CC/C=C(\C)[C@H]1CC[C@]2(C)[C@@H]1[C@H](O)C[C@@H]1[C@@]3(C)CC[C@H](O[C@@H]4O[C@H](CO)[C@@H](O)[C@H](O)[C@H]4O[C@@H]4O[C@H](CO)[C@@H](O)[C@H](O)[C@H]4O)C(C)(C)[C@@H]3CC[C@]12C [Rg5, ginsenoside Rg5]
apoptosis and cell viability of retinal vascular endothelial cells (MTT assay) [1]: inhibited the apoptosis
apoptosis and cell viability of HUVEC (MTT assay) [2]: inhibited the apoptosis

C=C(CCC=C(C)C)[C@H]1CC[C@]2(C)[C@@H]1[C@H](O)C[C@@H]1[C@@]3(C)CC[C@H](O[C@@H]4O[C@H](CO)[C@@H](O)[C@H](O)[C@H]4O[C@@H]4O[C@H](CO)[C@@H](O)[C@H](O)[C@H]4O)C(C)(C)[C@@H]3CC[C@]12C [Rk1, ginsenoside Rk1]
DNA fragmentation of vascular endothelial cells (DAPI) [3]: suppressed the DNA fragmentation
recovering effect on the decrease of tight junction proteins ZO-1, ZO-2 and occludin (western blot) ([4]; decrease caused by VEGF 100 ng, 30 μg Rk1 injected into the retina, 24 hours, mouse): potent recovering effect
recovering effect on the decrease of tight junction proteins ZO-1, ZO-2 and occludin (western blot) ([4]; decrease caused by diabetes, mouse retina): potent recovering effect
apoptosis and cell viability of vascular endothelial cells (MTT assay) [5]: inhibited the apoptosis
apoptosis and cell viability of retinal vascular endothelial cells (MTT assay) [1]: inhibited the apoptosis
apoptosis and cell viability of HUVEC (MTT assay) [2]: inhibited the apoptosis
exudation of fluorescent material (increased permeability of retinal vessel), angiography ([6]; VEGF 100 ng and 30 μg Rk1 injected into the retina, 24 hours, mouse): recovered
exudation of fluorescent material (increased permeability of retinal vessel), angiography ([6]; diabetes induced mice): recovered
recovering effect on the decrease of tight junction proteins ZO-1, ZO-2 and occludin (western blot) ([7]; decrease caused by AGE (advanced glycation end product)): potent recovering effect
recovering effect on the decrease of tight junction proteins ZO-1, ZO-2 and occludin (western blot) ([7]; decrease caused by VEGF 20 ng/ml, 6 hours): potent recovering effect
recovering effect on the decrease of tight junction protein ZO-1, ZO-2 and occludin (immunocytochemistry) ([8]; decrease caused by AGE, FIG. 7): potent recovering effect
recovering effect on the decrease of tight junction protein ZO-1, ZO-2 and occludin (immunocytochemistry) ([8]; decrease caused by VEGF 20 ng/ml, 6 hours, FIG. 8): potent recovering effect
recovering effect on the decrease of tight junction protein ZO-1, ZO-2 and occludin (immunocytochemistry) ([9]; decrease caused by VEGF 100 ng, 30 μg Rk1 injected into the retina, 24 hours, mouse, FIG. 9): potent recovering effect
recovering effect on the decrease of tight junction protein ZO-1, ZO-2 and occludin (immunocytochemistry) ([9]; decrease caused by diabetes, mouse retina, FIG. 10): potent recovering effect
